Experimental data published in US6649626B1, “N-substituted 1-(lactone) isoquinolones for treating nervous disorders” (Centre National de la Recherche Scientifique (CNRS), priority 1999, dated 2003).

Experiments:
[1] = tested on: picrotoxin-binding site of the GABA-A receptor; experiment: Displacement of 35S-TBPS from brain membranes; design: species or system rats
[2] = target: T1, α1β2γ2 subtype of the GABA receptor (Rattus norvegicus, UniProt P18508+P62813+P63138); experiment: Electrophysiology: modulation of GABA currents in Xenopus oocytes expressing recombinant GABA-A receptors; type: cell-based; conditions: for % stimulation of the GABA currents (100 μM): 100 μM compound with GABA; for % stimulation of the GABA currents (100 μM) / % stimulation of the GABA currents: α1β2γ2 in oocytes
T1 construct: expressed in transfected cells; host or cells: Xenopus laevis oocytes (cRNA injection)
T1 sequence (P62813 28-455): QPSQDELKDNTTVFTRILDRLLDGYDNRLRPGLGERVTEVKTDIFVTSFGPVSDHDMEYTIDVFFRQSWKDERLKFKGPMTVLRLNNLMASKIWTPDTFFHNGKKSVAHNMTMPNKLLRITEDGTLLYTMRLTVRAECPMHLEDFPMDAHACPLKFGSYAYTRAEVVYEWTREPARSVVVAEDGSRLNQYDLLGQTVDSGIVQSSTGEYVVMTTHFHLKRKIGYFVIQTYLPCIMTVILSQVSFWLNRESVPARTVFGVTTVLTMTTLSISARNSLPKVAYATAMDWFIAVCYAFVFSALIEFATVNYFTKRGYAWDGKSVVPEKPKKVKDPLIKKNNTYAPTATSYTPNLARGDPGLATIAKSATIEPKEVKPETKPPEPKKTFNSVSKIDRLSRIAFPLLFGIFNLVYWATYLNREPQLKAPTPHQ
T1 sequence (P63138 25-474 limits assumed): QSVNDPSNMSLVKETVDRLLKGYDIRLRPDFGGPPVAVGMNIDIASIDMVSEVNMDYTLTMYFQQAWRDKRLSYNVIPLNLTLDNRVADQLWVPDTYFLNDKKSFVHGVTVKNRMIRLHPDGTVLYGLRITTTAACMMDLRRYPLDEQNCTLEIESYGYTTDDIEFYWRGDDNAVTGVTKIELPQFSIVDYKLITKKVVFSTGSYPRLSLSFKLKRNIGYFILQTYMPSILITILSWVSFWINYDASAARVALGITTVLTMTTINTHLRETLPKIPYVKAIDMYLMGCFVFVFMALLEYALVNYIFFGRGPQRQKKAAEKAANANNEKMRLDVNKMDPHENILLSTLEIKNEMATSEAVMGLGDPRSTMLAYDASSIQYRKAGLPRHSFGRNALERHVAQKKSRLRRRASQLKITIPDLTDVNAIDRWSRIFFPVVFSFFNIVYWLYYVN
T1 sequence (P18508 39-466): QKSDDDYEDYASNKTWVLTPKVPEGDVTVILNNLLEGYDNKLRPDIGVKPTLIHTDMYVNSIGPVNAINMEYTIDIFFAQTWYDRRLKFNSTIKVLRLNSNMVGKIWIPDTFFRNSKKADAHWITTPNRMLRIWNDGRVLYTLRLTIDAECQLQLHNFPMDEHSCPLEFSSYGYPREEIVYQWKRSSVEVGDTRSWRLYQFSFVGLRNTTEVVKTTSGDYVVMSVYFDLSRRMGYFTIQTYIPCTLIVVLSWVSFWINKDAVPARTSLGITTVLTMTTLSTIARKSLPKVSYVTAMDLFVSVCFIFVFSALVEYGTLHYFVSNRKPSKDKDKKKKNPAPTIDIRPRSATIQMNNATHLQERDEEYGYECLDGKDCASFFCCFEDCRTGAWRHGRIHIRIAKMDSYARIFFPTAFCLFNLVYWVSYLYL

[3] = target: T2, benzodiazepine-binding site of the GABA-A receptor (Rattus norvegicus, UniProt P18508+P62813); experiment: Displacement of tritiated flunitrazepam from brain membranes; conditions: for inhibition at 100 µM: read-out: Inhibition of the tritiated ligands % Flu (100 μM)
T2 construct: IC50 Flu / BZ receptor; other: cerebellum (ce); other: cerebellum (ce; BZ1 subtype); other: 10 μM; cerebellum; other: 100 μM; other: 0.5 μM
T2 sequence (P62813 28-455): as the sequence (P62813 28-455) above
T2 sequence (P18508 39-466): as the sequence (P18508 39-466) above
T2 sequence (P63138 26-474 partner): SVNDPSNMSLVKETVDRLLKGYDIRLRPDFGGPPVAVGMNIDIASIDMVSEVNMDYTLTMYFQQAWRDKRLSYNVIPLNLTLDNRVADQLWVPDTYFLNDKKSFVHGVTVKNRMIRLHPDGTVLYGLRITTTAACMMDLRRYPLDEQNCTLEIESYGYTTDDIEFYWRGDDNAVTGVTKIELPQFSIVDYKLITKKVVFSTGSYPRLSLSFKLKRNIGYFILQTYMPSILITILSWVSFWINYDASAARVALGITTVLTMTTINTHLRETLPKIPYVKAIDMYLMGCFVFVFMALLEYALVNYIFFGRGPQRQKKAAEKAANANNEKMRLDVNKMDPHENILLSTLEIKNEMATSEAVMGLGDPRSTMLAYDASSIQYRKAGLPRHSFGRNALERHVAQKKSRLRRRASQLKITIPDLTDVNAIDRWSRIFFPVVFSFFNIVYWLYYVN

[4] = tested on: GABA-binding site of the GABA-A receptor; experiment: Displacement of tritiated muscimol from brain membranes

SMILES	Inhibition of the tritiated ligands % TBPS ([1]; 10 μM) [%]	% stimulation of the GABA currents (100 μM) [2]	Displacement of muscimol ([4]; 10 μM) [%]	Displacement of muscimol ([4]; 100 μM)	% stimulation of the GABA currents ([2]; 0.1 μM compound) [%]	Inhibition of the tritiated ligands % Flu (100 μM) ([3]; tissue not stated) [%]	other results
CC1=C[C@@H]([C@H]2c3cc4c(cc3CCN2C)OCO4)OC1=O (racemic) [Compound 43]	10	−7 ± 2%	45	50%			inhibition at 100 µM ([3]; tissue not stated): ~20%; Displacement of muscimol ([4]; 0.5 μM): 30%
COc1cc2c(cc1OC)[C@H]([C@@H]1CCC(=O)O1)N(C(=O)OCc1ccccc1)CC2 (racemic) [Compound 49]	0	+67 ± 9%		100 μM = 0%	0	30	
O=C1C=CC(C2c3cc4c(cc3CCN2C(=O)OCc2ccccc2)OCO4)O1 (racemic) [Compound 44]	25		0		0	45	Inhibition of the tritiated ligands % TBPS ([1]; 0.5 μM): 0%; % stimulation of the GABA currents ([2]; 50 μM compound): +215 ± 16%; Inhibition of the tritiated ligands % Flu ([3]; 0.5 μM, tissue not stated): < 5%; Inhibition of the tritiated ligands % Flu ([3]; 10 μM, tissue not stated): 20%; Displacement of muscimol ([4]; 0.5 μM): 10%; Muscimol: stimulation ([4]; 100 μM, stimulation instead of displacement): 10%
COc1cc2c(cc1OC)C(C1C=CC(=O)O1)NCC2 (racemic) [Compound 42]		−45 ± 6%	0	20%	0		inhibition at 10 µM ([3]; 10 μM, tissue not stated, read-out: Inhibition of the tritiated ligands % Flu): 0%; inhibition at 100 µM ([3]; tissue not stated): 30%
O=C1C=CC(C2c3ccccc3CCN2C(=O)Cc2ccccc2)O1 (racemic) [Compound 56]		+10 ± 17%		100 μM = 0%			block of the stimulation caused by 20 μM of 164B ([2]; 100 μM): blocks the stimulation caused by 20 μM of 164B; Inhibition of the tritiated ligands % Flu ([3]; 0.5 μM, cerebellum): 30%; Inhibition of the tritiated ligands % Flu ([3]; 0.5 μM, cortex): 20%; Inhibition of the tritiated ligands % Flu ([3]; 10 μM, cerebellum): 80%; Inhibition of the tritiated ligands % Flu ([3]; 10 μM, cortex): 70%; Inhibition of the tritiated ligands % Flu (100 μM) ([3]; cerebellum): 85%; Inhibition of the tritiated ligands % Flu (100 μM) ([3]; cortex): 90%
O=C1C=CC(C2c3ccccc3CCN2C(=O)OCc2ccccc2)O1 (racemic) [Compound 51]	20	+225 ± 68%		100 μM = 0%	0	85	Inhibition of the tritiated ligands % TBPS ([1]; 0.5 μM): 0%; Inhibition of the tritiated ligands % Flu ([3]; 0.5 μM, tissue not stated): 0%; Inhibition of the tritiated ligands % Flu ([3]; 10 μM, tissue not stated): 50%
O=C1C=CC(C2c3ccccc3CCN2C(=O)c2ccccc2)O1 (racemic) [Compound 60]		+14 ± 13%		100 μM = 0%	0	90	Inhibition of the tritiated ligands % Flu ([3]; 0.5 μM, cerebellum): 35%; Inhibition of the tritiated ligands % Flu ([3]; 0.5 μM, cortex): 25%; Inhibition of the tritiated ligands % Flu ([3]; 10 μM, cerebellum): 90%; Inhibition of the tritiated ligands % Flu ([3]; 10 μM, cortex): 80%
